Values quoted from earlier work in patent publication US4552888A, “Ascorbic acid ethers in angiogene” (Eli Lilly and Company, priority 1983, dated 1985).

Test system: lung metastases and B16 melanoma
Conditions: mice; Folkman and Taylor; cited from earlier work

Substance: protamine
- inhibition of lung metastases and B16 melanoma: inhibited lung metastases and B16 melanoma in mice
